Test results published in ChEMBL document CHEMBL1201862, “PubChem BioAssay data set” (2004).
Calls of active or inactive are those of the source.

How the values were obtained:
[1] = viability of uninfected HEp-2 cells – cell-based, HTS, cytotoxicity control for RSV inhibitor project, dose response (AID 2410); assay type: functional; conditions: human respiratory syncytial virus
[2] = viability of PTEN-deleted HCT116 cells – cell-based, HCT116 PTEN knockout, dose response (AID 1047); assay type: functional;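 further: HCT116 colon tumor cells with PTEN knocked out; cells exposed to compound for 60 hours before readout; potency for loss of cell viability measured by luminescence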
[3] = viability of HCT116 lacking mutant beta-catenin – cell-based, human colon tumor, dose response (AID 1045); assay type: functional;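 further: HCT116 colon tumor cells with beta catenin knocked out; cells exposed to compound for 60 hours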
[4] = Luminescence Cell-Based Dose Retest to Confirm Inhibitors of Cancer Stem Cells. [Related pubchem assays (depositor defined):AID2717, AID2721]; assay type: functional; conditions: Homo sapiens
Nonstructural protein 1 = Nonstructural protein 1 (Influenza A virus, UniProt Q194T2); assay type: functional, Influenza A virus (A/California/07/2009(H1N1))
[5] = reduced cellular PGC1a acetyl-lysine signal – cell-based, cherry-picked samples, dose response (AID 720514); assay type: functional;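 further: potency may reflect raised or lowered acetylation signal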
[6] = viability loss in HepG2 liver cells – cell-based, ATP luminescence, cherry-pick, set 6, cytotoxicity control, dose response (AID 1053125); assay type: functional
cells [7] = conditions: A549
cells [8] = experiment: cells
cells [9] = conditions: HEK293
Protein skinhead-1 = target: T1, Protein skinhead-1 (Caenorhabditis elegans, UniProt P34707); assay type: functional
T1 sequence (P34707 whole entry): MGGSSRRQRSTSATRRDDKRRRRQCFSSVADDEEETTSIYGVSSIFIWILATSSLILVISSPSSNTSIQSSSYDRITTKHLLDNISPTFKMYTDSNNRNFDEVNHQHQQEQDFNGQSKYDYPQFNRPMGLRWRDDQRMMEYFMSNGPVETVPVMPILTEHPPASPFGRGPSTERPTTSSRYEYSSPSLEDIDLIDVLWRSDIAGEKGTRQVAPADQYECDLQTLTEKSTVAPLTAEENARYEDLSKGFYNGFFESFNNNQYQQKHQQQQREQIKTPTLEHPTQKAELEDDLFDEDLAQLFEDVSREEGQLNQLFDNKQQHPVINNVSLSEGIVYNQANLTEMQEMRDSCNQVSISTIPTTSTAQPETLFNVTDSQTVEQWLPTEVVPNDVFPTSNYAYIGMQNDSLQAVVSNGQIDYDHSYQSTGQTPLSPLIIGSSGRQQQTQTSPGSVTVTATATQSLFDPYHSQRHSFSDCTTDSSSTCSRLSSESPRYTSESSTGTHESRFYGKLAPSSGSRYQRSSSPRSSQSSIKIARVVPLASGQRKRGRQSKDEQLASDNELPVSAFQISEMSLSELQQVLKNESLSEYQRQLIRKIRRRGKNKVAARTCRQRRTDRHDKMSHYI

[10] = target: T2, Oxysterols receptor LXR-beta (Homo sapiens, UniProt P55055); assay type: functional, cell-based;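 further: agonist activity at LXR measured by a cell-based luminescence readout across a dose range, run as a counterscreen for daf-12 agonists; potency for activation of Gal4-LXR reporter so compounds are agonists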
T2 sequence (P55055 whole entry): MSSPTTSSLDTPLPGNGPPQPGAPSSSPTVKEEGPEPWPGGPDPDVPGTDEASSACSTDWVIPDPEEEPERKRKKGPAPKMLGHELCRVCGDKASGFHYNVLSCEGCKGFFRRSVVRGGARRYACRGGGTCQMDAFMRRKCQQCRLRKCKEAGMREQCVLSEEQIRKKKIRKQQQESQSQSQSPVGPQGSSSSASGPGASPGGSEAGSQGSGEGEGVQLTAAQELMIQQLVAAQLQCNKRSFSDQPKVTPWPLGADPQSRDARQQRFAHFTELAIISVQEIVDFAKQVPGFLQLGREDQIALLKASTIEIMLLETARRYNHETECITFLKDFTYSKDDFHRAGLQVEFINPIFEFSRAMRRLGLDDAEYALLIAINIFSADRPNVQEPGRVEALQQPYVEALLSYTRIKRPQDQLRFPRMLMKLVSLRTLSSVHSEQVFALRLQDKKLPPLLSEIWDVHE

H9c2 = experiment: cells; assay type: functional, cell-based; conditions: Rattus norvegicus, H9c2, Myocardium
[11] = target: Endoplasmic reticulum aminopeptidase 1 (Homo sapiens, UniProt Q9NZ08); experiment: inhibition of human ERAP1 enzyme activity – biochemical, cherry-pick, set 2, plate reader, dose response (AID 743314)
[12] = target: T3, Disintegrin and metalloproteinase domain-containing protein 17 (Homo sapiens, UniProt P78536); experiment: exosite inhibitors of ADAM17, dose response, biochemical (AID 743260)
T3 sequence (P78536 whole entry, the tested form may be a part): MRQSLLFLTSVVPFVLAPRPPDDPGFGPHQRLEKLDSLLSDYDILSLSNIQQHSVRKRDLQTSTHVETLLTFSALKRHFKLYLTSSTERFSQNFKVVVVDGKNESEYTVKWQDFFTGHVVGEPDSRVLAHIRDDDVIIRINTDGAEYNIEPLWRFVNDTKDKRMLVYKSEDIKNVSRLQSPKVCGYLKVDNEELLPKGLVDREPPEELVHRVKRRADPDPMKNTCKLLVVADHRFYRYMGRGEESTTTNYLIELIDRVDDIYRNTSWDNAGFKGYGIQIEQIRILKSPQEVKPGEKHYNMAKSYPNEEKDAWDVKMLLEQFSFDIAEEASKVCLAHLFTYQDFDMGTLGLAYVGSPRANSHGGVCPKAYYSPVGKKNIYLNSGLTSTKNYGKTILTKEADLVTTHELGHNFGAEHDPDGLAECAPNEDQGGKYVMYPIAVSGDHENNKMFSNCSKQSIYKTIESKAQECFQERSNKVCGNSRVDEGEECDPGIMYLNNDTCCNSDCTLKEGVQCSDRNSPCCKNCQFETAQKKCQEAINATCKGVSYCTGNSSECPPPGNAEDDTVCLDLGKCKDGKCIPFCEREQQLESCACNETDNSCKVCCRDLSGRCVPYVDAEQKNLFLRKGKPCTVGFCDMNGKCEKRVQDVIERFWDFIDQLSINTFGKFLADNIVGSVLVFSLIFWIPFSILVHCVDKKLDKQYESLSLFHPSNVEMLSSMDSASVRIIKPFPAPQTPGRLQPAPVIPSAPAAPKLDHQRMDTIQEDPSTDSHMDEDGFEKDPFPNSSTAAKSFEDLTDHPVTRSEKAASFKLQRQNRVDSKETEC

[13] = inhibition of ADAM10 peptide cleavage – biochemical, FRET peptide substrate, recombinant human ADAM10, selectivity assay for ADAM17 exosite inhibitor project, dose response (AID 743259);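 further: ADAM10 enzyme cleaving a FRET peptide substrate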
[14] = Luminescence-based cell-based high throughput dose response assay to identify activators of the DAF-12 from the parasite S. stercoralis (ssDAF-12).; assay type: functional
[15] = target: T2, Oxysterols receptor LXR-beta; experiment: LXR agonists, Gal4 luciferase reporter, dose response, counter-screen for ssDAF-12 agonist project, cell-based, luminescence, HEK293, S. stercoralis campaign (AID 720737); assay type: functional; conditions: read-out: IC50 (the source's name)
[16] = target: 1-phosphatidylinositol 4,5-bisphosphate phosphodiesterase gamma-1 (Homo sapiens, UniProt P19174); experiment: Counterscreen for inhibitors of phospholipase C isozymes (PLC-B3): Fluorescence-based biochemical high throughput dose response assay to identify inhibitors of phospholipase C isozymes (PLC-gamma1).
Sequence of 1-phosphatidylinositol 4,5-bisphosphate phosphodiesterase gamma-1 (P19174 whole entry): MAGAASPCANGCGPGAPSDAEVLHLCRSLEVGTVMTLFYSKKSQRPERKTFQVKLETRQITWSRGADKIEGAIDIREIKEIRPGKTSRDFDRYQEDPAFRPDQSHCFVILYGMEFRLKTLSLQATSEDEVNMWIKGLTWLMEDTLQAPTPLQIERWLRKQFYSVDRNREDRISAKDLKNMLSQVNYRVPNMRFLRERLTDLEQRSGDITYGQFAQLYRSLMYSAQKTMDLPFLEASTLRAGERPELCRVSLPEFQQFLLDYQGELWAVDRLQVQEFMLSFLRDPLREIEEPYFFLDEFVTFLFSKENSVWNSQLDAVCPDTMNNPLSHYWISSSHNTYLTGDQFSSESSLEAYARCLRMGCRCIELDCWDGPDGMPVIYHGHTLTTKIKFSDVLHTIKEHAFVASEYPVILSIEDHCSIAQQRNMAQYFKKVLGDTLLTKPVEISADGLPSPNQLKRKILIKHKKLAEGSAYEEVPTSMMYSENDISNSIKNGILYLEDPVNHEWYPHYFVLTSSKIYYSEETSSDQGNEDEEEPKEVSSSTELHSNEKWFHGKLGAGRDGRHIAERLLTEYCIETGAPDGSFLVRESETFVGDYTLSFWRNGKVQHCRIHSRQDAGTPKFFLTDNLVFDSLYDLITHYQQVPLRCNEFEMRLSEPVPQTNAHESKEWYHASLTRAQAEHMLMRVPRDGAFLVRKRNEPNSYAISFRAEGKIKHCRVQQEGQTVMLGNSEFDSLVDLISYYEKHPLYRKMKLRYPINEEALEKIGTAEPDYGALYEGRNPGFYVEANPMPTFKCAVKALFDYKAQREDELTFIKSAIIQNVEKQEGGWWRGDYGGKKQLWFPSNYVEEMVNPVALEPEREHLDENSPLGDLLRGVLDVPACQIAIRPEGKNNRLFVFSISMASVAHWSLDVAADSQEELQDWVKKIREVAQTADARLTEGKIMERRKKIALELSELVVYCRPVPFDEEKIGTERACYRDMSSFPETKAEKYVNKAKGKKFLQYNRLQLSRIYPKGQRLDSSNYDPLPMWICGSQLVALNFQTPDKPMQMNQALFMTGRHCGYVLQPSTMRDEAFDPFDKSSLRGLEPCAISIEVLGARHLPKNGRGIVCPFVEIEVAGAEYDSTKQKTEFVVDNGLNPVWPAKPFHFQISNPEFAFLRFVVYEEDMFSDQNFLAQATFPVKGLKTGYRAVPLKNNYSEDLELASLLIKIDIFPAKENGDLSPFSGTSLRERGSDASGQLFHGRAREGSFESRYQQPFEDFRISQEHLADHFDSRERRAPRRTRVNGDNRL

[17] = target: 1-phosphatidylinositol 4,5-bisphosphate phosphodiesterase beta-3 (Homo sapiens, UniProt Q01970); experiment: Fluorescence-based biochemical high throughput dose response assay to identify inhibitors of phospholipase C isozymes (PLC-B3).
Sequence of 1-phosphatidylinositol 4,5-bisphosphate phosphodiesterase beta-3 (Q01970 whole entry): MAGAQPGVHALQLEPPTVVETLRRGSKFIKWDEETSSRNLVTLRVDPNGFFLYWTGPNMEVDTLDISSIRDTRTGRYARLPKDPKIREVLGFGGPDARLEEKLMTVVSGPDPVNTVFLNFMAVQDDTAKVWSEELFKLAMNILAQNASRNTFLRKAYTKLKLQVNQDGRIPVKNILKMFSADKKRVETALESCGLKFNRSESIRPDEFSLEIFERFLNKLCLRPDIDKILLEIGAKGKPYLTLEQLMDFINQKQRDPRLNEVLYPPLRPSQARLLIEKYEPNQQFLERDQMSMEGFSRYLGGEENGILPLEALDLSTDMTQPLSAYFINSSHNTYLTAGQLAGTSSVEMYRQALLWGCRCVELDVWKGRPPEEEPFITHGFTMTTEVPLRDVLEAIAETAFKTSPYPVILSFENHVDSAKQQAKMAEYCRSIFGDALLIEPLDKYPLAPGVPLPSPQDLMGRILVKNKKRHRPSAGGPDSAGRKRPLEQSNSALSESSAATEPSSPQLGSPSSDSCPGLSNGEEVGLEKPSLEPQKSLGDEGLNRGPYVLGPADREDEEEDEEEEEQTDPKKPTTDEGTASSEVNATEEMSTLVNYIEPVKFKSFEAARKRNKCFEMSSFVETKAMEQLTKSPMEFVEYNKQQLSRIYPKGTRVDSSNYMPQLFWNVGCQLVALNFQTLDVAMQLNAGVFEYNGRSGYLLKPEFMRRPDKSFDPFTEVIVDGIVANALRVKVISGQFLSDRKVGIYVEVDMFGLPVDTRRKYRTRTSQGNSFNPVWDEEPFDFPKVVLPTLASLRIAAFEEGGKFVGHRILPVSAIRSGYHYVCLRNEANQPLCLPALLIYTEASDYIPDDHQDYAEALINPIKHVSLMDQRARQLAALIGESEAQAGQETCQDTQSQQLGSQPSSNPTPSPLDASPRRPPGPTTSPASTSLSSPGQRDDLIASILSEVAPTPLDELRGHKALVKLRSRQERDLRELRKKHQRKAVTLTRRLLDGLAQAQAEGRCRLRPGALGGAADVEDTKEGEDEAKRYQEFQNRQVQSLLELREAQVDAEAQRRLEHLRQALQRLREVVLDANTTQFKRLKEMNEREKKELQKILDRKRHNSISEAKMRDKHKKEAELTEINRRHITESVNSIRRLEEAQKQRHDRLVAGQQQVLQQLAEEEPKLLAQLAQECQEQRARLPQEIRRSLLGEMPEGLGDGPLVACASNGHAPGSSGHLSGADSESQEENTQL

[18] = potency of ADAM10 substrate cleavage blockers – biochemical, QFRET, dose response (AID 743254);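 further: ADAM10 enzyme with the DM2 quenched FRET peptide as substrate; EDANS fluorescence gain as the protease cuts the substrate; inhibitor potency against ADAM10 proteolytic activity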
[19] = target: T3, Disintegrin and metalloproteinase domain-containing protein 17; experiment: inhibition of ADAM17 substrate cleavage – biochemical, quenched FRET substrate, counter-screen for ADAM10 exosite inhibitor project, dose response (AID 743253)
[20] = target: NAD-dependent protein deacylase sirtuin-5, mitochondrial (Homo sapiens, UniProt Q9NXA8); experiment: sirtuin-5 deacylation blockers, concentration series – biochemical, fluorescence imaging, cherry-pick, set 5, dose response (AID 720591);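 further: desuccinylation of succinyl peptide AMC substrate read as fluorescence after trypsin release; potency of inhibitors that lower fluorescence and may act on trypsin instead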
Sequence of NAD-dependent protein deacylase sirtuin-5, mitochondrial (Q9NXA8 whole entry): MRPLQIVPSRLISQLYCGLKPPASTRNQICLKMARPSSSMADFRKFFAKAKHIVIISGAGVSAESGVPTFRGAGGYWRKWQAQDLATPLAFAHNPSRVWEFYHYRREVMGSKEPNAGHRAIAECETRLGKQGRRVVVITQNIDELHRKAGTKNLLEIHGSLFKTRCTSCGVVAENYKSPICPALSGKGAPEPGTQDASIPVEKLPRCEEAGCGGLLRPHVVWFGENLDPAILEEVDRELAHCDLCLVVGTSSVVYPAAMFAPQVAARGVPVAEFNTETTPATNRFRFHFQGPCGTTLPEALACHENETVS

Paired box protein Pax-8 = Paired box protein Pax-8 (Homo sapiens, UniProt Q06710); experiment: PAX8 transcriptional activity inhibition in RMG-I – RMG-I cells, luciferase, cherry-pick, dose response (AID 687027); assay type: functional, cell-based;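 further: luciferase reporter driven by Pax8 target thyroperoxidase promoter measured by SteadyGlo luminescence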
Sequence of Paired box protein Pax-8 (Q06710 whole entry): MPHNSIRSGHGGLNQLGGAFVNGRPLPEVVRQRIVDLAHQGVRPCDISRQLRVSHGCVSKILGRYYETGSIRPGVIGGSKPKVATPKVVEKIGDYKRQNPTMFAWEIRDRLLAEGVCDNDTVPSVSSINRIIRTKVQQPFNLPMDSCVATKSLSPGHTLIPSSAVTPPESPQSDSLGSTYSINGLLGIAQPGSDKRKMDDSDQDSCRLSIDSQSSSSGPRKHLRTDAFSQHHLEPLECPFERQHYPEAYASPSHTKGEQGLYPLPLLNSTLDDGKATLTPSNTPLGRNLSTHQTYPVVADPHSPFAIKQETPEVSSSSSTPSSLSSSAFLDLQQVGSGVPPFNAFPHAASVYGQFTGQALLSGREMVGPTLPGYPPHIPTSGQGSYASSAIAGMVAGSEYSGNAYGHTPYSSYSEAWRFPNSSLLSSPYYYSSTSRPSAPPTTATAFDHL

[21] = toxicity toward immortalized ovarian surface epithelium – cell-based, plate reader, dry powder samples, cytotoxicity control for PAX8 inhibitor project, dose response (AID 743045); assay type: functional
[22] = A2780 cell killing – plate reader, dry powder samples, cytotoxicity control, dose response (AID 743046); assay type: functional, cell-based
[23] = OVCAR-3 cell viability loss – plate reader, dry powder samples, PAX8 inhibitor project, dose response (AID 743044); assay type: functional, cell-based
[24] = IGROV1 cell killing – plate reader, dry powder samples, PAX8 inhibitor project, dose response (AID 743043); assay type: functional, cell-based; conditions: IGROV-1
[25] = OVCAR8 cell viability loss – plate reader, dry powder samples, PAX8 project, dose response (AID 743197); assay type: functional, cell-based; conditions: OVCAR-8
Caspase-6 = target: T4, Caspase-6 (Homo sapiens, UniProt P55212); experiment: inhibition of CASP6 peptide cleavage – biochemical, VEID-R110 fluorescence, cherry-pick, dose response (AID 720632)
T4 sequence (P55212 whole entry): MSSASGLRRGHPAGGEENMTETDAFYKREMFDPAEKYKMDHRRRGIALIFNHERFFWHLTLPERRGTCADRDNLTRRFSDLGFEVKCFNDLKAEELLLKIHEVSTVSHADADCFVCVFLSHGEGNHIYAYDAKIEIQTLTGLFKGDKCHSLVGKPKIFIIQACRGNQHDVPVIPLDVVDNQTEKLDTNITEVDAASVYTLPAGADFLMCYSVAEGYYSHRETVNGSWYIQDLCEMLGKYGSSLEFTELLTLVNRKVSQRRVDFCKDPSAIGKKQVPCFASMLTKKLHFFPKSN

Caspase-9 = Caspase-9 (Homo sapiens, UniProt P55211); experiment: inhibitors of purified CASP9 protease – biochemical, fluorescence, plate reader, cherry-picked samples, selectivity assay for caspase-6 inhibitor project, dose response (AID 743293)
Sequence of Caspase-9 (P55211 1-315 limits assumed): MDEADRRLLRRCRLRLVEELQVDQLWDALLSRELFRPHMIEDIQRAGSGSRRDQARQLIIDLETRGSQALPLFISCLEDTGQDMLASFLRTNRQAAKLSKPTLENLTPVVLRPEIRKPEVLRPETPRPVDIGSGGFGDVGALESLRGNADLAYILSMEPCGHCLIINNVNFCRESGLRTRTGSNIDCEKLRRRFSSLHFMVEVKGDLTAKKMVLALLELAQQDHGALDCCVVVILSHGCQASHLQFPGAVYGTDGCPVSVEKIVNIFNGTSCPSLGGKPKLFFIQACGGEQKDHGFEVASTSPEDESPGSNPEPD
Sequence of Caspase-9 (P55211 331-416 limits assumed): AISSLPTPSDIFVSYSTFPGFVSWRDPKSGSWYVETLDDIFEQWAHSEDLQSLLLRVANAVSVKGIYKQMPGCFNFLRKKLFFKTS

Caspase-7 = target: T5, Caspase-7 (Homo sapiens, UniProt P55210); experiment: caspase-7 enzyme inhibition, selectivity check – biochemical, DEVD-R110 fluorescence, cherry-pick, selectivity assay for caspase-6 inhibitor project, dose response (AID 743295); assay type: functional
T5 sequence (P55210 whole entry): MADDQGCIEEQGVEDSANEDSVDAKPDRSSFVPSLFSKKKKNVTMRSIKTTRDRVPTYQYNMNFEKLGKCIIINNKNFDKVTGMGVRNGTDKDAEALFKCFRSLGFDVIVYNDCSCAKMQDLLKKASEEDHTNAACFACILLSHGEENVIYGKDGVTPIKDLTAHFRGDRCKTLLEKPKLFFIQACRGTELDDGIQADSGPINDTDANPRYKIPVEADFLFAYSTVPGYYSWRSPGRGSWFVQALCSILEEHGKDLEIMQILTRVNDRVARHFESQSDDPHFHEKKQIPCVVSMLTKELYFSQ

[26] = cytotoxicity in MITF-independent A375 cells – cell-based, CellTiter-Glo luminescence, dry powder, set 4, counter-screen for MITF inhibitor project, dose response (AID 624364); assay type: functional; conditions: A-375;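 further: A375 melanoma cells are MITF independent so this is a counter screen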
[27] = viability loss in MITF-independent A375 cells – cell-based, CellTiter-Glo luminescence, dry powder, set 2, counter-screen for MITF inhibitor project, dose response (AID 624489); assay type: functional; conditions: A-375;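 further: actives are compounds lowering A375 viability meaning general cytotoxicity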
[28] = MITF Orthogonal Assay: SK-MEL-5 CTG Assay Measured in Cell-Based System Using Plate Reader - 2084-02_Inhibitor_Dose_DryPowder_Activity_Set7.; assay type: functional
[29] = MITF: Counter assay: A375 proliferation Measured in Cell-Based System Using Plate Reader - 2084-03_Inhibitor_Dose_DryPowder_Activity_Set8.; assay type: functional; conditions: A-375
[30] = inhibitors of TRPM1-promoter reporter in SK-MEL-5 – cell-based, luciferase, dry powder, set 8, MITF inhibitor project, dose response (AID 624430); assay type: functional
Fibrinogen beta chain [31] = target: T6, Fibrinogen beta chain (Homo sapiens, UniProt P02675); experiment: Fluorescence polarization-based biochemical high throughput dose response assay to identify inhibitors that disrupt the binding of a cyclic peptide (Tn6) to the fibrin proteolytic product D-Dimer and fragment E complex [DD(E )].
T6 sequence (P02675 whole entry, the tested form may be a part): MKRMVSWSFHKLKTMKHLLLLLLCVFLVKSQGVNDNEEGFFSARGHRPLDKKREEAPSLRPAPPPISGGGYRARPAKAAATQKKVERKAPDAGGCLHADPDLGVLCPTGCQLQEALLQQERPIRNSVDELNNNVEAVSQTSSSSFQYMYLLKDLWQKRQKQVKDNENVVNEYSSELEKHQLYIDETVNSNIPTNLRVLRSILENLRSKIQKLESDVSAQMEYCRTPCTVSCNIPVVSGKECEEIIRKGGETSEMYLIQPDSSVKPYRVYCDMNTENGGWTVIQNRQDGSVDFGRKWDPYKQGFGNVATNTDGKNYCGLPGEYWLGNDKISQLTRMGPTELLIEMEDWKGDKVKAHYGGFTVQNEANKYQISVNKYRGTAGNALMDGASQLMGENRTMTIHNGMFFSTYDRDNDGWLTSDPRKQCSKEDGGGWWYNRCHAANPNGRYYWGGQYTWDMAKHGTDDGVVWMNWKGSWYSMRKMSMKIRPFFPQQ

Fibrinogen beta chain [32] = target: T6, Fibrinogen beta chain; experiment: Fluorescence polarization-based biochemical high throughput dose response assay to identify inhibitors that disrupt the binding of a cyclic peptide (Tn7) to the fibrin proteolytic product D-Dimer and fragment E complex [DD(E )].
[33] = viability of BHK-21 cells – cell-based, secondary screen, cytotoxicity control for flavivirus guanylyltransferase probe project (AID 624078); assay type: functional
Kallikrein-7 = Kallikrein-7 (Homo sapiens, UniProt P49862); experiment: Fluorescence Intensity-based biochemical primary high throughput dose response assay to identify activators of kallikrein-7 (K7) zymogen.

## CCCOc1ccccc1-n1sc2c(c1=S)-c1cc(OC)cc3c1N(C(=O)C3=O)C2(C)C
[1]
  CC50: 21.4 µM (active)
[2]
  EC50: 19.9 µM (active)
[3]
  EC50: 22 µM (active)
[4]
  AC50: 5.35 µM (active)
Nonstructural protein 1
  IC50: 9.35 µM (active)
[5]
  AC50: 19.4 µM (active)

## CCOc1ccc2nc(NCCN=C(S)NCCCN(C)C)c(C#N)cc2c1
[6]
  AC50: > 52 µM (inactive)
Cells [7]
  AC50: > 52 µM (inactive)
Cells [8]
  AC50: > 32 µM (inactive)
Cells [9]
  AC50: > 52 µM (inactive)

## Cc1cc2nn(-c3ccc(F)cc3)nc2cc1N
Protein skinhead-1
  IC50: > 100 µM (inactive)
[10]
  EC50: > 67.5 µM (inactive)

## CCCCc1cc(=O)oc2cc(O)ccc12
H9c2
  IC50: > 79 µM (inactive)
[11]
  AC50: 7.25 µM (active)

## NS(=O)(=O)c1ccc(NCc2cc(Cl)ccc2OCc2ccc(F)cc2)cc1
[12]
  IC50: > 69.5 µM (inactive)
[13]
  IC50: > 23.2 µM (inactive)

## C=CCc1ccc(OCCCCOc2ccc(C(=O)O)cc2)c(OC)c1
[14]
  IC50: > 67.5 µM (inactive)
[15]
  EC50: > 67.5 µM (inactive)

## Cc1cc(OCC(=O)OCC(=O)NCc2ccc3c(c2)OCO3)ccc1Cl
[16]
  IC50: > 123 µM (inactive)
[17]
  IC50: > 123 µM (inactive)

## CC(O)(c1ccc(F)c(F)c1)c1nc(-c2cc3ccccc3o2)cs1 (stereo unspecified)
[18]
  IC50: 10.5 µM (inactive)
[19]
  IC50: > 69.5 µM (inactive)

## O=C(O)c1ccc(S(=O)(=O)N(Cc2ccccc2)C2CCCCC2)cc1
[20]
  AC50: > 30 µM (inactive)

## CS(=O)(=O)Nc1ccc2c(c1)[C@@H]1C[C@@H](CC(=O)NCc3ccc(Oc4ccccc4)cc3)O[C@@H](CO)[C@@H]1O2
Paired box protein Pax-8
  AC50: 1.95 µM (active)
[21]
  AC50: 8.81 µM (active)
[22]
  AC50: 6.31 µM (active)
[23]
  AC50: 3.38 µM (active)
[24]
  AC50: 6.7 µM (active)
[25]
  AC50: 11.3 µM (active)

## O=C(C[C@@H]1C[C@H]2c3cc(NC(=O)NC4CCCCC4)ccc3O[C@H]2[C@H](CO)O1)NCc1ccccn1
Caspase-6
  AC50: 7.79 µM (active)
Caspase-9
  AC50: 53.5 µM (active)
Caspase-7
  AC50: 29.7 µM (active)

## O=C1C(NS(=O)(=O)c2ccc(Br)cc2)=C(N2CCOCC2)C(=O)c2ccccc21
[26]
  AC50: > 70 µM (inactive)
[27]
  AC50: > 70 µM (inactive)

## CN1CCN(C2=C(Nc3cccc(Br)c3)C(=O)c3ccccc3C2=O)CC1
[28]
  AC50: 12.3 µM (active)
[29]
  AC50: 39.3 µM (active)
[30]
  AC50: 4.79 µM (active)

## O=C(CSc1nnc(SCc2cccc3ccccc23)s1)Nc1ccc(S(=O)(=O)Nc2nccs2)cc1
Fibrinogen beta chain [31]
  IC50: 15.6 µM (inactive)
Fibrinogen beta chain [32]
  IC50: > 83.3 µM (inactive)

## O=S(=O)(Nc1cc(Sc2ccccc2)c(O)c2ccccc12)c1ccc(F)cc1
[33]
  CC50: 13.4 µM (active)

## COc1ccc(/C=N/NC(=O)c2cc3c(ccc4ccccc43)o2)cc1OC
Kallikrein-7
  EC50: > 23.2 µM (inactive)
